From EP4733299A1, “SULFUR-CONTAINING FUSED RING COMPOUND, PHARMACEUTICAL COMPOSITION CONTAINING SAME, AND PREPARATION METHOD THEREFOR AND USE THEREOF” (Shenzhen Braegen Pharmaceutical Co., Ltd., priority 2023, dated 2024)

Legend:
Aβ aggregates = assay: Fluorescence binding assay with protein aggregates (fluorescence spectrophotometer); conditions: Kd for Aβ to Kd for α-Synuclein
Experimental: (§1) First, the compound was a final concentration of 5 µM by dissolved in 50 mM Tris-buffer (pH 7.0) with 0.0025% (v/v) DMSO. Then, Aβ, α-Synuclein, and Tau aggregates were added, with their final concentrations being 0.02, 0.04, 0.08, 0.16, 0.32, 0.64, and 1.28 µM, respectively. Subsequently, the fluorescence measurements were detected using a fluorescence spectrophotometer (Horiba, Fluorolog3).
Aβ PFF: Aβ (1-42) peptide (rPeptide; catalog No.: A-1163-1) was resolved in 9 volumes of ice-cold distilled water and vortexed occasionally. After 30 min, one volume of 10X fibril-forming buffer (0.2 M NaPi, 1.5 M NaCl, 0.2% NaN3, pH 7.5) was added. The final concentration of peptide was 1 mg/ml. The solution was incubated at 37 °C for one week.
(§2) Tau aggregates: The cDNA sequence of Tau was inserted into a plasmid carrying a GST tag, which was then transfected into BL21 bacteria for protein expression. Bacterial pellets were resuspended in high-salt buffer (0.75 M NaCl, 50 mM Tris, pH 7.4, 1 mM EDTA), sonicated, and centrifuged at 70,000 x g for 30 min. The supernatants were applied onto a Glutathione sepharose beads column (GE Healthcare) and purified by GST tag. Thrombin was used to remove the GST tag. The protein was dialyzed with FPLC buffer (50 mM NaCl, 50 mM Tris- HCl pH 7.4). The protein was filtered through a 0.22 µm syringe filter. The concentration of Tau was adjusted to 3 mg/mL, 12.5 µM heparin was added, and the mixture was shaken at 37 °C and 300 rpm for 7 days to prepare Tau aggregates. • Incubation Concentrations: 0.02, 0.04, 0.08, 0.16, 0.32, 0.64, and 1.28 µM; • Incubation Temperature: 37°C; • Incubation Duration: 5 min; • Detection Wavelengths: [formula]
(§3) Statistical analysis was performed using GraphPad Prism® version 8.2.1.

Tau aggregates = Tau aggregates (Homo sapiens, UniProt P10636); assay: as above; conditions: 5 min; for Ratio / α-Synuclein: Kd for Tau to Kd for α-Synuclein; for Kd: Tau aggregates, compound 5 µM, 37°C
Experimental: as §1, §2, §3

a-Syn aggregates = molecular target: T1, a-Syn aggregates (Homo sapiens, UniProt P37840, A53T); assay: Binding specificity on brain slices of rotenone-treated SNCA transgenic mice; conditions: brain slices, rotenone-treated SNCA Tg mice; Fig. 2
T1 construct: tissue The Jackson Laboratory 017682; host or cells: brain sections of rotenone-treated transgenic mice
Experimental: To further explore whether the positive compounds selectively bind to Lewy bodies, brain slices from mice were used to test the binding specificity assays.
Staining with a-Synuclein protein coding gene (SNCA) transgenic mice (the Jackson Laboratory; stock numbers: 017682) were treated with rotenone (Oral gavage of rotenone under the following protocol: Mice were treated with 0.1 mL/25 g of vehicle containing 1% methylcellulose (Sigma, Catalog No.: M0512) and 1.25% chloroform (Sigma, Catalog No.: 2432) or a solution containing 0.625 mg/mL of rotenone (ULTRA Scientific, Catalog No.: PST-890) with 1% methylcellulose and 1.25% chloroform. We prepared rotenone solution by dissolving rotenone in chloroform and then diluting into 1% methylcellulose solution while mixing vigorously. Rotenone or vehicle control was orally administered with a 1.2 x 60 mm gavage (Unimed, Switzerland) once a day for 5 days/week, consecutively for 3 months.), which contains abundant LB-like inclusions. Furthermore, brain slices from NFT abundant Tau P301S mice and Aβ-enriched 5 x FAD mice were also used separately.
The brain slices were fixed and incubated for 12 h at 4 °C with primary antibodies followed by incubation with Alexa Fluor 568-, Alexa Fluor 488-, or Alexa Fluor 647-conjugated secondary antibodies (Invitrogen) for 3 h at room temperature. Then stained with ThS (Sigma, Catalog No.: T1892) or candidate compounds at room temperature, 4',6-diamidino-2-phenylindole (DAPI, 1 µg/ml) (Sigma-Aldrich) was used for the nuclear staining. The slides were imaged with Olympus FluoView FV1000 confocal laser scanning microscope using Olympus FluoView software to acquire data.

[1] = In vivo PK profiling, plasma and brain exposure; design: species or system male CD-1 (ICR) mice; conditions: 5 mg/kg via tail vein injection; for Kp at 1 min: at 1 minute, read-out: brain/plasma ratio; for half-life: plasma
Experimental: To test whether these compounds are brain permeable in vivo, in vivo PK profiling was conducted to determain brain exposure.
An in vivo PK study was performed in male CD-1 (ICR) mice. Weighed a known amount of test compound and dissolved in vehicle (5% NMP + 15% Solutol + 80% PBS) to make a formulation (1 mg/mL). Then administered 5 mg/kg compound via tail vein injection into mice. The experiment included five groups (sampling time points), each group consisting of three male CD-1 (ICR) mice (body weight range: 29.1-30.6 g). At designated time points (0, 1, 5, 15, and 30 minutes post-injection), serial venous blood samples (approximately 30 µL each) and brain tissue samples were harvested from each animal. Blood samples were collected into Vacutainer IM tubes containing EDTA-K2 anticoagulant, inverted several times, and immediately placed on wet ice pending plasma centrifugation. For brain tissue samples, PBS (100 mM, pH 7.4) at […] the weight of the tissue (1:4, w/v) was added for homogenization. The concentrations of the test compound in plasma and brain tissue homogenates were measured by the LC/MS/MS analysis, with the specific operations as follows: Aliquots of 10 µL plasma sample or 50 µL brain homogenate sample was transferred to a 96-well plate, mixed with 200 µL protein precipitation solvent (methanol/acetonitrile, 1:1 v/v, containing 5 ng/mL Terfenadine). After protein precipitation, the supernatant was collected and diluted 3-fold with methanol/water (1:1, v/v, containing 0.1% FA). 1 µL of plasma samples or 3 µL of brain tissue homogenate samples was taken for LC/MS/MS analysis.

[2] = molecular target: T2, α-Syn-p129 or α-Syn aggregates (Homo sapiens, UniProt P37840, A53T); assay: In vivo validation: tail vein injection, then staining of brain sections; design: species or system rotenone-treated α-Syn A53T mice; conditions: 2 mg/kg tail vein injection; 0.5 hours after administration
T2 construct: tissue The Jackson Laboratory 017682; host or cells: brain sections of rotenone-treated transgenic mice
Experimental: (§4) In vivo validation of the compounds was performed using 8-month-old wild-type mice (Jiangsu Aniphe Biolaboratory Inc), 12-month-old 5xFAD mice (The Jackson Laboratory; Catalog No.: 034840), 6-month-old Tau P301S mice (The Jackson Laboratory; Catalog No.: 008169), and rotenone-treated α-Syn A53T mice (The Jackson Laboratory; Catalog No.: 017682). All mice were stratified by sex and randomly divided into groups, and the compounds were administered via tail vein injection at a dose of 2 mg/kg. Tissues were harvested and mouse brain sections were prepared 0.5 hours after administration, followed by staining with anti-Aβ (Biolegend; Catalog No.: SIG-39300) or AT8 (Thermo Fisher; Catalog No.: MN1020) together with the compounds, respectively.

AT8 = molecular target: T3, AT8 (Homo sapiens, UniProt P10636, P618S); assay: as above; design: species or system Tau P301S mice; conditions: 2 mg/kg tail vein injection; 0.5 hours after administration
T3 construct: tissue The Jackson Laboratory 008169; host or cells: brain of Tau P301S mice, compound injected in vivo, sections made afterwards
Experimental: as §4

[3] = male, CD-1 (ICR), mouse, brain/plasma, intravenous
[4] = male, CD-1 (ICR), mouse, brain/plasma, intravenous, read-out: brain/plasma ratio, maximum
[5] = male, CD-1 (ICR), mouse, intravenous

T3 sequence (P10636 1-412 isoform P10636-7 P272S): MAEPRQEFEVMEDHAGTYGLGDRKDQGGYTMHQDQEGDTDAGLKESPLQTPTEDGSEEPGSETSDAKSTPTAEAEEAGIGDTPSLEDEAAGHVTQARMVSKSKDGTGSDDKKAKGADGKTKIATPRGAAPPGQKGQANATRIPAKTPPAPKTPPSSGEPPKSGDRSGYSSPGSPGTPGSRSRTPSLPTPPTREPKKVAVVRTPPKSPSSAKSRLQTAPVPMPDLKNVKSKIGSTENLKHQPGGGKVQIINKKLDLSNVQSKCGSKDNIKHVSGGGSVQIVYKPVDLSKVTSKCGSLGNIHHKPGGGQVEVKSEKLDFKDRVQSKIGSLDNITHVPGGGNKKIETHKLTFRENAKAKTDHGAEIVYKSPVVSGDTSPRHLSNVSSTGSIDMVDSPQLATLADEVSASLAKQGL
Tau aggregates, sequence (P10636 with tags, fused parts or gaps): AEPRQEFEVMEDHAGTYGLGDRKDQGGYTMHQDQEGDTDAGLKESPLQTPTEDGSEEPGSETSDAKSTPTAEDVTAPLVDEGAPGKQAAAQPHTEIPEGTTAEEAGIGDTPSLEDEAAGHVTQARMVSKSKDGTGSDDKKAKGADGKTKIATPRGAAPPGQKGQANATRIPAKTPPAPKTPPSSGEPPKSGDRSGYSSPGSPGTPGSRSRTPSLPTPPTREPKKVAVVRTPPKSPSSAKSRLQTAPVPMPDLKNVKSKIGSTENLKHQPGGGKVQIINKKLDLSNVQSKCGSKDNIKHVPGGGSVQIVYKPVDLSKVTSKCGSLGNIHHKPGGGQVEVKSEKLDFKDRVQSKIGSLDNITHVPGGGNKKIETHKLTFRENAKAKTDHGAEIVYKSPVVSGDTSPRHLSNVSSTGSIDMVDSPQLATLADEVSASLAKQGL

Compound | Ratio / α-Synuclein (Aβ aggregates) | Ratio / α-Synuclein (Tau aggregates) | Kd (Tau aggregates) [nM] | capture of a-Syn aggregates (a-Syn aggregates) | plasma half-life extension compared to F0502B [1] [fold] | Kp at 1 min [1, 3] | Kp at 15 min [1, 4] | half-life [1, 5] [min] | co-localization with α-Syn-p129 or α-Syn aggregates [2] | specific binding to AT8 (AT8) | Kp at 30 min ([1]; male, CD-1 (ICR), mouse, brain/plasma, intravenous, at 30 minutes, read-out: brain/plasma ratio, maximum)
Cc1cc2nc(/C=C/c3ccc(O)c(N)c3)sc2cc1N(C)CCOCCF [Compound C, (E)-2-amino-4-(2-(6-((2-(2-fluoroethoxy)ethyl)(methyl)amino)-5-methylbenzo[d]thiazol-2-yl)vinyl)phenol] | 4.80 | 2.00 | 626 | sensitively captured a-Syn aggregates | 10 | 0.24 | 1.29 | 68.4 | co-localized | no specific binding | –
COc1c(/C=C/c2nc3cc(C)c(N(C)CCOCCF)cc3s2)ccc(O)c1Br [Compound E, (E)-2-bromo-4-(2-(6-((2-(2-fluoroethoxy)ethyl)(methyl)amino)-5-methylbenzo[d]thiazol-2-yl)vinyl)-3-methoxyphenol] | 5.59 | 2.34 | 36.5 | sensitively captured a-Syn aggregates | – | 0.12 | 3.37 | – | co-localized | no specific binding | –
CCN(CCOCCF)c1cc2sc(/C=C/c3ccc(O)c(Br)c3)nc2cc1C [Compound R, (E)-2-bromo-4-(2-(6-(ethyl(2-(2-fluoroethoxy)ethyl)amino)-5-methylbenzo[d]thiazol-2-yl)vinyl)phenol] | 15.74 | 32.13 | 2600 | sensitively captured a-Syn aggregates | 4.7 | 0.05 | – | 32.4 | co-localized | no specific binding | 2.55
